Test results as given in US6645973B1, “Spiro(2h-1-benzopyran-2,4-piperidine)derivatives as glycine transport inhibitors” (Akzo Nobel, priority 1999, dated 2003).
Where a name gives a salt, the structure may show the parent alone.

| SMILES | melting point |
| --- | --- |
| O=C([O-])CN1CCC2(C=C(c3ccc(F)cc3)c3ccccc3O2)CC1.[Li+] | 285 to 291 °C (dec.) |
| O=C([O-])CN1CCC2(C=C(c3ccccc3)c3cc(F)ccc3O2)CC1.[Li+] | 293 to 298 °C (dec.) |
| O=C(O)CN1CCC2(C=C(c3ccc(Cl)c(F)c3)c3ccccc3O2)CC1 (as salt: hydrochloride) [Example 8, 1′-Carboxymethyl-4-(4-chloro-3-fluorophenyl)spiro[2H-1-benzopyran-2,4′-piperidine]hydrochloride] | 263 to 274 °C |
| O=C([O-])CN1CCC2(CC1)CC(c1ccc(F)cc1)c1ccccc1O2.[Li+] (centres unmarked) | 274 to 278 °C (dec.) |

Now from value to compound:

| melting point | SMILES |
| --- | --- |
| 244 to 251 °C | O=C(O)CN1CCC2(C=C(c3cc(F)c(OCC(F)(F)F)c(F)c3)c3ccccc3O2)CC1 (as salt: hydrochloride) [Example 59, 1′-Carboxymethyl-4-(3,5-difluoro-4-trifluoroethoxyphenyl)spiro[2H-1-benzopyran-2,4′-piperidine]hydrochloride] |
| 119 to 121 °C | CCOC(=O)CN1CCC2(C=C(c3ccc(CC)cc3)c3ccccc3O2)CC1 [Example 65, Ethyl 4-(4-ethylphenyl)spiro[2H-1-benzopyran-2,4′-piperidine]-1′-acetate] |
| 221 to 225 °C | C=CCOc1c(F)cc(C2=CC3(CCN(CC(=O)O)CC3)Oc3ccccc32)cc1F (as salt: hydrochloride) [Example 55, 4-(4-Allyloxy-3,5-difluorophenyl)-1′-carboxymethylspiro[2H-1-benzopyran-2,4′-piperidine]hydrochloride] |
| 238 to 250 °C | CN(C)c1ccc(C2=CC3(CCN(CC(=O)O)CC3)Oc3ccccc32)cc1 (as salt: hydrochloride) [Example 24, 1′-Carboxymethyl-4-[4-(N,N-dimethylamino)phenyl]spiro[2H-1-benzopyran-2,4′-piperidine]hydrochloride] |
